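Five concentrations, 48 hours, 96-well plates. TGI marks complete inhibition of growth.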
Experiments:
Assay in all cases: DTP human tumour cell line panel, 48 h
SK-OV-3 ovarian = tested on: SK-OV-3 ovarian
NCI-H460 lung = tested on: NCI-H460 lung
CAKI-1 renal = tested on: CAKI-1 renal
HCT-116 colon = tested on: HCT-116 colon
SNB-75 CNS = tested on: SNB-75 CNS
SW-620 colon = tested on: SW-620 colon
NCI-H23 lung = tested on: NCI-H23 lung
A549 NSCLC = tested on: A549 NSCLC
SR leukemia = tested on: SR leukemia
SK-MEL-5 melanoma = tested on: SK-MEL-5 melanoma
OVCAR-8 ovarian = tested on: OVCAR-8 ovarian
SF-268 CNS = tested on: SF-268 CNS
SNB-19 CNS = tested on: SNB-19 CNS
U251 CNS = tested on: U251 CNS
SF-295 CNS = tested on: SF-295 CNS
PC-3 prostate = tested on: PC-3 prostate
M14 melanoma = tested on: M14 melanoma
T-47D breast = tested on: T-47D breast
COLO 205 colon = tested on: COLO 205 colon
TK-10 renal = tested on: TK-10 renal
OVCAR-3 ovarian = tested on: OVCAR-3 ovarian
SN12C renal = tested on: SN12C renal
ACHN renal = tested on: ACHN renal
MDA-MB-435 = tested on: MDA-MB-435
CCRF-CEM leukemia = tested on: CCRF-CEM leukemia
MOLT-4 leukemia = tested on: MOLT-4 leukemia
SF-539 CNS = tested on: SF-539 CNS
KM12 colon = tested on: KM12 colon
RPMI-8226 leukemia = tested on: RPMI-8226 leukemia
K-562 leukemia = tested on: K-562 leukemia
HS 578T breast = tested on: HS 578T breast
UACC-257 melanoma = tested on: UACC-257 melanoma
HCT-15 colon = tested on: HCT-15 colon
UO-31 renal = tested on: UO-31 renal
EKVX NSCLC = tested on: EKVX NSCLC
OVCAR-5 ovarian = tested on: OVCAR-5 ovarian
DU-145 prostate = tested on: DU-145 prostate
MALME-3M melanoma = tested on: MALME-3M melanoma
MCF7 breast = tested on: MCF7 breast
MDA-N = tested on: MDA-N
UACC-62 melanoma = tested on: UACC-62 melanoma
SK-MEL-28 melanoma = tested on: SK-MEL-28 melanoma
IGROV1 ovarian = tested on: IGROV1 ovarian
HOP-62 NSCLC = tested on: HOP-62 NSCLC
LOX IMVI melanoma = tested on: LOX IMVI melanoma
HOP-92 NSCLC = tested on: HOP-92 NSCLC
HCC-2998 colon = tested on: HCC-2998 colon
SK-MEL-2 melanoma = tested on: SK-MEL-2 melanoma
MDA-MB-231 breast = tested on: MDA-MB-231 breast
NCI/ADR-RES ovarian = tested on: NCI/ADR-RES ovarian
OVCAR-4 ovarian = tested on: OVCAR-4 ovarian
HT29 colon = tested on: HT29 colon
BT-549 breast = tested on: BT-549 breast
HL-60(TB) leukemia = tested on: HL-60(TB) leukemia
NCI-H522 lung = tested on: NCI-H522 lung
786-0 renal = tested on: 786-0 renal
A498 renal = tested on: A498 renal
RXF 393 renal = tested on: RXF 393 renal
NCI-H226 lung = tested on: NCI-H226 lung

Measured: TGI

CCCCCc1c2nc(c(CCCCC)c3ccc([nH]3)c(CCCCC)c3ccc([nH]3)c(CCCCC)c3nc1C=C3)C=C2
not listed: A498 renal | RXF 393 renal | NCI-H226 lung
> 100 µM: all other assays above

O=C(O)CN1CCN(CC(=O)O)CCN(CC(=O)O)CCN(CC(=O)O)CC1
not listed: SK-OV-3 ovarian | MALME-3M melanoma | SK-MEL-28 melanoma
> 100 µM: all other assays above
